This assay concerns the target T1, ATX in human plasma (Homo sapiens, UniProt Q13822).
T1 construct: blank plasma was derived from at least 6 individual people; from tissue; host or cells: human plasma (pooled from at least 6 individuals)
The assay is described as follows: Analysis in vitro: detection of LPA in human plasma for screening activity (LPA 18:2 by LC/MS/MS). The assay is classed as biochemical. To be noted: incubated 2 hours at 37° C., LPA 18:2 detected by LC/MS/MS. An excerpt: Analysis In Vitro: Detection of LPA in Human Plasma for Screening Activity
Principle: LPC in plasma being used as a substrate, the produced LPA 18:2 (LPA 17:0 as an internal standard) is detected by LC/MS/MS quantitative analysis. At different concentrations of the compounds to be tested, the percentage of residual activity is obtained by the ratio of the production of LPA18:2 to that in the absence of the compounds to be tested, thereby calculating IC50 values.
Experiment procedures: blank plasma was derived from at least 6 individual people. The compounds to be tested were diluted from stock solution in 3-fold dilution gradient, to produce 8 concentrations of working solution (with zero) in series. 10 μL of the melting blank plasma samples were taken and iced methanol solution containing internal standard (LPA 17:0) was added to it, so that the mixture directedly performed protein precipitation, which served as a system control sample. 2 μL of the working solution in different concentration was taken and 198 μL of blank human plasma was added, which was incubated with a concentration of 0 to 10 μM. The samples were placed at an incubater containing 5% CO2 at 37° C., and incubated for 2 hours. When the incubation was completed, 10 μL of plasma sample was taken and appropriate volume of iced methanol solution containing internal standard (LPA 17:0) was added into it, so that the mixture directedly performed protein precipitation. The precipitation was centrifuged to take supernatant. LPA 18:2 was detected by LC/MS/MS and IC50 values were analyzed and calculated by software, seeing Table 2.

This passage reports IC50 results from patent US11679108B2, “Aromatic heterocyclic compound, and pharmaceutical composition and use thereof” (GUANGZHOU HENOVCOM BIOSCIENCE CO., LTD., priority 2018, dated 2023).

On to `CCc1nc2sc(N3CC4(CCN(CC(=O)N5CC(C#N)C5)C4)C3)nn2c1N(C)c1nc(-c2ccc(F)cc2)c(C#N)s1` [Example 53, 2-{[6-ethyl-2-(6-(2-(3-cyanoazetidin-1-yl)-2-oxoethyl)-2,6-diazaspiro[3.4]octane-2-yl)imidazo[2,1-b][1,3,4]thiadiazol-5-yl](methyl)amino}-4-(4-fluorophenyl)thiazole-5-carbonitrile], for which the IC50 (in general, the midpoint of a concentration-inhibition curve) was in the range of 0.01 to 100 nM.
With `CCc1nc2sc(N3CCC4(CN(CC(=O)N5CC(O)C5)C4)C3)nn2c1N(C)c1nc(-c2ccc(F)cc2)c(C#N)s1` [Example 54, 2-{[6-ethyl-2-(2-(2-(3-hydroxyazetidin-1-yl)-2-oxoethyl)-2,6-diazaspiro[3.4]octane-6-yl)imidazo[2,1-b][1,3,4]thiadiazol-5-yl](methyl)amino}-4-(4-fluorophenyl)thiazole-5-carbonitrile], the IC50 was in the range of 100 to 500 nM.
The same measure for `CCc1nc2sc(N3CCC4(CN(CC(=O)N5CC(C#N)C5)C4)C3)nn2c1N(C)c1nc(-c2ccc(F)cc2)c(C#N)s1` [Example 55, 2-{[6-ethyl-2-(2-(2-(3-cyanoazetidin-1-yl)-2-oxoethyl)-2,6-diazaspiro[3.4]octane-6-yl)imidazo[2,1-b][1,3,4]thiadiazol-5-yl](methyl)amino}-4-(4-fluorophenyl)thiazole-5-carbonitrile]: 100 to 500 nM; for `CCc1nc2sc(N3CC4CN(CC(=O)N5CC(O)C5)CC4C3)nn2c1N(C)c1nc(-c2ccc(F)cc2)c(C#N)s1` (stereo not drawn) [Example 56, 2-{[6-ethyl-2-(5-(2-(3-hydroxyazetidin-1-yl)-2-oxoethyl)hexahydropyrrolo[3,4-c]pyrrol-2(1H)-yl)imidazo[2,1-b][1,3,4]thiadiazol-5-yl](methyl)amino}-4-(4-fluorophenyl)thiazole-5-carbonitrile]: 0.01 to 100 nM; for `CCc1nc2sc(N3CC4CN(CC(=O)N5CC(C#N)C5)CC4C3)nn2c1N(C)c1nc(-c2ccc(F)cc2)c(C#N)s1` (stereo not drawn) [Example 57, 2-{[6-ethyl-2-(5-(2-(3-cyanoazetidin-1-yl)-2-oxoethyl)hexahydropyrrolo[3,4-c]pyrrol-2(1H)-yl)imidazo[2,1-b][1,3,4]thiadiazol-5-yl](methyl)amino}-4-(4-fluorophenyl)thiazole-5-carbonitrile]: 100 to 500 nM.
In the case of `CCc1nc2sc(N3C[C@@H]4C[C@H]3CN4CC(=O)N3CC(O)C3)nn2c1N(C)c1nc(-c2ccc(F)cc2)c(C#N)s1` [Example 58, 2-{[6-ethyl-2-((1S,4S)-5-(2-(3-hydroxyazetidin-1-yl)-2-oxoethyl)-2,5-diazabicyclo[2.2.1]heptan-2-yl)imidazo[2,1-b][1,3,4]thiadiazol-5-yl](methyl)amino}-4-(4-fluorophenyl)thiazole-5-carbonitrile] it was 0.01 to 100 nM.
The compound `CCc1nc2sc(N3C[C@@H]4C[C@H]3CN4CC(=O)N3CC(C#N)C3)nn2c1N(C)c1nc(-c2ccc(F)cc2)c(C#N)s1` [Example 59, 2-{[6-ethyl-2-((1S,4S)-5-(2-(3-cyanoazetidin-1-yl)-2-oxoethyl)-2,5-diazabicyclo[2.2.1]heptan-2-yl)imidazo[2,1-b][1,3,4]thiadiazol-5-yl](methyl)amino}-4-(4-fluorophenyl)thiazole-5-carbonitrile] displayed a 50% inhibitory concentration (IC50) of 100 to 500 nM.
In the case of `CCc1nc2sc(N3CC4CC3CO4)nn2c1N(C)c1nc(-c2ccc(F)cc2)c(C#N)s1` (stereo not drawn) [Example 60, 2-{[2-(2-oxa-5-azabicyclo[2.2.1]heptan-5-yl)-6-ethylimidazo[2,1-b][1,3,4]thiadiazol-5-yl](methyl)amino}-4-(4-fluorophenyl)thiazole-5-carbonitrile] it was at least 1000 nM; in that of `CCc1nc2sc(N3CC4CC(C3)N4CC(=O)N3CC(O)C3)nn2c1N(C)c1nc(-c2ccc(F)cc2)c(C#N)s1` [Example 61, 2-{[6-ethyl-2-(6-(2-(3-hydroxyazetidin-1-yl)-2-oxoethyl)-3,6-diazabicyclo[3.1.1]heptan-3-yl)imidazo[2,1-b][1,3,4]thiadiazol-5-yl](methyl)amino}-4-(4-fluorophenyl)thiazole-5-carbonitrile], 100 to 500 nM; in that of `CCc1nc2sc(N3CC4CCN(CC(=O)N5CC(O)C5)C4C3)nn2c1N(C)c1nc(-c2ccc(F)cc2)c(C#N)s1` (stereo not drawn) [Example 62, 2-{[6-ethyl-2-(1-(2-(3-hydroxyazetidin-1-yl)-2-oxoethyl)hexahydropyrrolo[3,4-b]pyrrol-5(1H)-yl)imidazo[2,1-b][1,3,4]thiadiazol-5-yl](methyl)amino}-4-(4-fluorophenyl)thiazole-5-carbonitrile], 100 to 500 nM.
The same measure for `CCc1nc2sc(N3CC(N(C)CC(=O)N4CC(O)C4)C3)nn2c1N(C)c1nc(-c2ccc(F)cc2)c(C#N)s1` [Example 63]: 0.01 to 100 nM.
In the case of `CCc1nc2sc(N3CCC(NC(=O)N4CC(O)C4)C3)nn2c1N(C)c1nc(-c2ccc(F)cc2)c(C#N)s1` (stereo not drawn) [Example 64, N-{1-[5-((5-cyano-4-(4-fluorophenyl)thiazol-2-yl)(methyl)amino)-6-ethylimidazo[2,1-b][1,3,4]thiadiazol-2-yl]pyrrolidin-3-yl}-3-hydroxyazadetin-1-carboxamide] it was 0.01 to 100 nM.
The compound `CCc1nc2sc(N3CCN(CC(=O)N4CC(O)C4)C(C)(C)C3)nn2c1N(C)c1nc(-c2ccc(F)cc2)c(C#N)s1` [Example 65, 2-{[6-ethyl-2-(4-(2-(3-hydroxyazetidin-1-yl)-2-oxoethyl)-3,3-dimethylpiperazin-1-yl)imidazo[2,1-b][1,3,4]thiadiazol-5-yl](methyl)amino}-4-(4-fluorophenyl)thiazole-5-carbonitrile] came in with an IC50 of 0.01 to 100 nM.
The same measure for `CCc1nc2sc(N3CCN(CC(=O)N4CC(O)C4)C[C@H]3C)nn2c1N(C)c1nc(-c2ccc(F)cc2)c(C#N)s1` [Example 66, (R)-2-{[6-ethyl-2-(4-(2-(3-hydroxyazetidin-1-yl)-2-oxoethyl)-2-methylpiperazin-1-yl)imidazo[2,1-b][1,3,4]thiadiazol-5-yl](methyl)amino}-4-(4-fluorophenyl)thiazole-5-carbonitrile]: 0.01 to 100 nM; for `CCc1nc2sc(N3CCN(CC(=O)N4CC(O)C4)C[C@@H]3C)nn2c1N(C)c1nc(-c2ccc(F)cc2)c(C#N)s1` [Example 67, (S)-2-{[6-ethyl-2-(4-(2-(3-hydroxyazetidin-1-yl)-2-oxoethyl)-2-methylpiperazin-1-yl)imidazo[2,1-b][1,3,4]thiadiazol-5-yl](methyl)amino}-4-(4-fluorophenyl)thiazole-5-carbonitrile]: 0.01 to 100 nM.
In the case of `CCc1nc2sc(N3CCN(CC(=O)N4CC(O)C4)[C@@H](C)C3)nn2c1N(C)c1nc(-c2ccc(F)cc2)c(C#N)s1` [Example 68, (S)-2-{[6-ethyl-2-(4-(2-(3-hydroxyazetidin-1-yl)-2-oxoethyl)-3-methylpiperazin-1-yl)imidazo[2,1-b][1,3,4]thiadiazol-5-yl](methyl)amino}-4-(4-fluorophenyl)thiazole-5-carbonitrile] it was 0.01 to 100 nM; in that of `CCc1nc2sc(N3CCN(CC(=O)N4CC(O)C4)[C@H](C)C3)nn2c1N(C)c1nc(-c2ccc(F)cc2)c(C#N)s1` [Example 69, (R)-2-{[6-ethyl-2-(4-(2-(3-hydroxyazetidin-1-yl)-2-oxoethyl)-3-methylpiperazin-1-yl)imidazo[2,1-b][1,3,4]thiadiazol-5-yl](methyl)amino}-4-(4-fluorophenyl)thiazole-5-carbonitrile], 100 to 500 nM; in that of `CCc1nc2sc(N3CC4CCC(C3)N4CC(=O)N3CC(O)C3)nn2c1N(C)c1nc(-c2ccc(F)cc2)c(C#N)s1` [Example 70, 2-{[6-ethyl-2-(8-(2-(3-hydroxyazetidin-1-yl)-2-oxoethyl)-3,8-diazabicyclo[3.2.1]octan-3-yl)imidazo[2,1-b][1,3,4]thiadiazol-5-yl](methyl)amino}-4-(4-fluorophenyl)thiazole-5-carbonitrile], 100 to 500 nM.
The same measure for `CCc1nc2sc(N3CCN(CC(=O)N4CC(O)C4)C4(CC4)C3)nn2c1N(C)c1nc(-c2ccc(F)cc2)c(C#N)s1` [Example 71, 2-{[6-ethyl-2-(4-(2-(3-hydroxyazetidin-1-yl)-2-oxoethyl)-4,7-diazaspiro[2.5]octan-7-yl)imidazo[2,1-b][1,3,4]thiadiazol-5-yl](methyl)amino}-4-(4-fluorophenyl)thiazole-5-carbonitrile]: 100 to 500 nM.
The compound `CCc1nc2sc(N3C[C@@H](C)N(CC(=O)N4CC(O)C4)[C@@H](C)C3)nn2c1N(C)c1nc(-c2ccc(F)cc2)c(C#N)s1` [Example 72, cis-2-{[6-ethyl-2-(4-(2-(3-hydroxyazetidin-1-yl)-2-oxoethyl)-3,5-dimethylpiperazin-1-yl)imidazo[2,1-b][1,3,4]thiadiazol-5-yl](methyl)amino}-4-(4-fluorophenyl)thiazole-5-carbonitrile] yielded an IC50 of 100 to 500 nM.
In the case of `CCc1nc2sc(N3C[C@H](C)N(CC(=O)N4CC(O)C4)C[C@@H]3C)nn2c1N(C)c1nc(-c2ccc(F)cc2)c(C#N)s1` [Example 74, 2-{[6-ethyl-2-((2S,5S)-4-(2-(3-hydroxyazetidin-1-yl)-2-oxoethyl)-2,5-dimethylpiperazin-1-yl)imidazo[2,1-b][1,3,4]thiadiazol-5-yl](methyl)amino}-4-(4-fluorophenyl)thiazole-5-carbonitrile] it was 0.01 to 100 nM.
